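Grown in 96-well plates, cells were treated for 48 hours with each compound at five concentrations. Insufficient inhibition: endpoint recorded as highest concentration tested. The concentration for 50% growth inhibition is given as GI50.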 Calls of active or inactive are those of the source. Rule as the data show it: active = GI50 up to about 1.1 µM and inactive = higher.

Assay in all cases: DTP human tumour cell line panel, 48 h
Test [1] relates to OVCAR-4.
Test [2] deals with Malme-3M.
For test [3], the system named is HOP-92.
The subject of test [4] is CAKI-1.
Test [5] relates to NCI/ADR-RES.
Test [6] deals with NCI-H460.
The test system of test [7] is OVCAR-3.
The subject of test [8] is NCI-H23.
Test [9] deals with U-251.
Test [10] concerns A498.
Test [11] relates to CCRF-CEM.
Test [12] relates to UACC-257.
Test [13] has as its system NCI-H226.
For test [14], the system named is HCC 2998.
Test [15] relates to MOLT-4.
For test [16], the system named is COLO 205.
In test [17] the test system is SNB-19.
The subject of test [18] is SK-MEL-2.
In test [19] the test system is OVCAR-5.
Test [20] relates to SK-MEL-28.

On to `CCCN1C(=O)/C(=C(/O)C(=O)OCC)C(c2ccc(OC)c(OC)c2)C1=O` (stereo not given), for which the GI50 in test [1] is > 100 µM (inactive); in test [2], > 100 µM (inactive); in test [3] it was > 100 µM (inactive); in test [4] it was > 100 µM (inactive); in test [5] it was > 100 µM (inactive); in test [6], > 31.6 µM (inactive). For the same compound, the GI50 in test [7] was > 47.8 µM (inactive); in test [8], > 100 µM (inactive); in test [9], > 100 µM (inactive); in test [10], > 100 µM (inactive); in [11], > 100 µM (inactive); in test [12], > 100 µM (inactive). For the same compound, the GI50 in test [13], in test [14], in [15], in [16], in test [17] and in test [18] was > 100 µM (inactive) in each case. Besides, the GI50 in test [19] and in [20] was > 100 µM (inactive) in each case.

As for `CC1=NCCc2cc3[nH]c4ccccc4c3cc21`, the GI50 is 47.5 µM (inactive) in [1]; 10.7 µM (inactive) in test [2]; 0.897 µM (active) in [3]; 5.32 µM (inactive) in test [4]; 23.7 µM (inactive) in test [5]; 13.3 µM (inactive) in test [6]. Moreover, the GI50 in [7] was 50.2 µM (inactive); in test [8] it was 33 µM (inactive); in test [9] it was 22.7 µM (inactive); in test [10] it was 11.5 µM (inactive); in [11], 12.5 µM (inactive); in test [12] it was 10.3 µM (inactive). The GI50 in test [13] was 15.2 µM (inactive); in [14], 24 µM (inactive); in test [15] it was 11.5 µM (inactive); in [16], 9.91 µM (inactive); in test [17], 49.1 µM (inactive); in test [18], 11.3 µM (inactive). Further, the GI50 in test [19] was 16.6 µM (inactive); in [20] it was 10.7 µM (inactive).

For `CCOC(=O)CN(CC)C(=O)NC12CC3CC(CC(C3)C1)C2`, the GI50 in [1] was 175 µM (inactive); in test [2] it was 152 µM (inactive); in test [3], 67 µM (inactive); in test [4], 169 µM (inactive); in test [5], 196 µM (inactive); in [6] it was 200 µM (inactive). For the same compound, the GI50 in test [7] is 105 µM (inactive); in [8], 208 µM (inactive); in test [9], 246 µM (inactive); in [10], 136 µM (inactive); in test [11], 211 µM (inactive); in [12], 144 µM (inactive). Moreover, the GI50 in [13] was 160 µM (inactive); in [14] it was 222 µM (inactive); in test [15], 133 µM (inactive); in test [16] it was 141 µM (inactive); in test [17] it was 339 µM (inactive); in test [18], 131 µM (inactive). Moreover, the GI50 in test [19] is 225 µM (inactive); in test [20], 269 µM (inactive).

Values taken from ChEMBL document CHEMBL1201862, “PubChem BioAssay data set” (2004).
